In patent US20180028425A1, “COSMETIC COMPOSITIONS OF UV FILTERS” (3V Sigma S.P.A., priority 2016, published 2018):

Assay: UV-A/UV-B ratio of the UV filter compounds
Format: physicochemical
Excerpt: Typically, the numerical UV-A/UV-B ratio of these compounds, defined as the ratio of the intensity of the radiation absorbed between 320 nm and 400 nm (UVA fraction) to that absorbed between 290 nm and 320 nm (UVB fraction), is greater than 0.20, preferably greater than 0.30, whereas in the analogous triazine compounds with a 4-aminobenzoate or 4-aminobenzamide substituent different from the substituents described in Formula (IV), it is below about 0.14.
The UVA:UVB ratio is the ratio between the intensity of the radiation absorbed between 320 nm and 400 nm (UVA fraction) and that absorbed between 290 nm and 320 nm (UVB fraction).

SMILES	UVA fraction compared with known triazine analogues (diethylhexyl butamido triazone, ethylhexyl triazone)
CCCCC(CC)COC(=O)c1ccc(NC(=O)c2ccc(Nc3nc(Nc4ccc(C(=O)Nc5ccc(C(=O)OCC(CC)CCCC)cc5)cc4)nc(Nc4ccc(C(=O)NC(C)(C)C)cc4)n3)cc2)cc1 (stereo not drawn) [Compound (V)]	at least twice as high
CCCCC(CC)COC(=O)c1ccc(NC(=O)c2ccc(Nc3nc(Nc4ccc(C(=O)NC(C)(C)C)cc4)nc(Nc4ccc(C(=O)OCC(CC)CCCC)cc4)n3)cc2)cc1 (stereo not drawn) [Compound (VI)]	at least twice as high
CCCCC(CC)COC(=O)c1ccc(NC(=O)c2ccc(Nc3nc(Nc4ccc(C(=O)OCC(CC)CCCC)cc4)nc(Nc4ccc(C(=O)OCC(CC)CCCC)cc4)n3)cc2)cc1 (stereo not drawn) [Compound (VII)]	at least twice as high
